Data taken from PMC5743070 (The Journal of Biological Chemistry, 2017).

How the values were obtained:
solubility (statement) = assay type: physicochemical
TTD–PHD (UHRF1_126–366) = target: T1, TTD–PHD (UHRF1_126–366) (Homo sapiens, UniProt Q96T88); assay: ITC of H3 peptide binding to TTD–PHD
T1 construct: His tag (TEV-cleavable) (N); made in house
T1 sequence (Q96T88 126-366): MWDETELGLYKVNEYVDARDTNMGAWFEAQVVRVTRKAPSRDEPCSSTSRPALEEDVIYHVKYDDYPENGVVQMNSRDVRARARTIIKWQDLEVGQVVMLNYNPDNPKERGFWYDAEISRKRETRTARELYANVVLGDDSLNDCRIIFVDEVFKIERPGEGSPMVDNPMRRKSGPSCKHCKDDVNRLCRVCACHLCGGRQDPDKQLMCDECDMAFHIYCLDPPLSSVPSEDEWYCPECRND
Description: A preliminary peptide injection of 0.06 μl was followed by subsequent 2-μl injections into the sample cell containing 167 μl of 50 μM TTD–PHD. Where indicated, 1.5 mM BPC or 1.5 mM PBR peptide was included in the injection syringe and sample cell. The reported KD and n values are based on the average from two measurements. For ITC measurements of TTD (UHRF1_121–286) interaction with BPC, the protein was buffered in 20 mM Tris (pH 7.4), 50 mM NaCl, and 5% DMSO. BPC was brought to a concentration of 2.5 mM and injected into the sample cell containing 40 μM protein. The data were acquired on a Nano ITC from TA Instruments at 25 °C and fitted with an independent-binding site model using NanoAnalyze software (v3.7.0).
ITC curves showing TTD-PHD binding to methylated (red) and unmethylated (black) H3 peptide.
(1 picture or pasted object on this page, not shown here)

PHD = assay: NMR titration of PHD with BPC; assay type: binding
Description: NMR samples were buffered in 20 mM sodium phosphate (pH 7.5), 150 mM NaCl, 5 mM DTT, 5 mM β-mercaptoethanol, 2 mM TCEP, and 10 μM ZnSO4. The protein concentration was between 200 and 300 μM for all samples. The data were collected at 25 °C on Bruker spectrometers equipped with cryoprobes and operating at 500, 600, or 800 MHz. The assignment of backbone TTD–PHD resonances was accomplished using the ABACUS method ([29]) for which standard backbone and ^15N-edited NOESY spectra were collected using ^15N/^13C/^2H- or ^15N/^13C-labeled protein. All 3D experiments were acquired using non-uniform sampling and processed using the software MDDGUI ([30]) or qMDD ([31]). ^15N-Labeled TTD–PHD was used to acquire ^15N T1 and T2 relaxation and ^1H-^15N heteronuclear NOE measurements ([32]) collected using standard Bruker pulse schemes in an interleaved manner. For T1 measurements, the variable delay was set to 0.1, 0.4, 0.8, 1.5, 2.0, 2.5, 3.5, and 5 s. For T2 measurements, the variable delay was set to 16, 32, 48, 64, 80, 96, 128, and 144 ms. The D1 was 3 s for all experiments. Reported values were the average from two measurements. All spectra were processed using NMRPipe ([33]) and analyzed with SPARKY ([34]). […]
trated by the perturbation of I211, I212 and E281 resonances in HSQC spectra of the TTD in a competition assay. […]

TTD (UHRF1_121–286) = target: T2, TTD (UHRF1_121–286) (Homo sapiens, UniProt Q96T88); assay: DSF thermal shift of TTD; assay type: binding; conditions: 0.1 mg/ml TTD, absence and presence of 3 mM BPC, 0.1 M HEPES pH 7.5, 0.15 M NaCl, 5× Sypro Orange, 4 °C/min
T2 construct: UHRF1_121–286 corresponding to the TTD; made in house
T2 sequence (Q96T88 121-286): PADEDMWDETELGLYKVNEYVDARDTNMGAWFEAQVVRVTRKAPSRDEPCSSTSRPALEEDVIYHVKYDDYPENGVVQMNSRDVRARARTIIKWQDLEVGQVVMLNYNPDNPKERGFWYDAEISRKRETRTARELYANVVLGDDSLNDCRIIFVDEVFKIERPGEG
Description: DSF measurements were performed with a Light Cycler 480 II instrument from Roche Applied Science. TTD (UHRF1_121–286) was buffered at 0.1 mg/ml in 0.1 M HEPES (pH 7.5), 0.15 M NaCl, and 5× Sypro Orange. Sypro Orange was purchased from Invitrogen as a 5,000× stock solution, and it was diluted 1:1,000 to yield a 5× working concentration. Experiments were run in the absence and presence of 3 mM BPC. DSF was carried out by increasing the temperature from 20 to 95 °C at a heating rate of 4 °C/min, and data points were collected at 1 °C intervals. The temperature scan curves were fitted to a Boltzmann sigmoid function, and the Tm values were obtained from the midpoint of the transition as described previously ([47]).
Figure S5 (related to Fig. 4)
Binding of BPC in the groove of TTD. […]
labeled (at the N-terminus) H3K9me3(1-25) peptide, (B) ITC, and (C) DSF. (D) KD estimates of BPC bind-ing based on I211 and Y239 amide peak movement (where Δ(ppm) = ((ΔδHN)2 + (ΔδN/6.5)2 )1⁄2) in (1H-15N) HSQC spectra when the TTD is titrated with BPC. […]
as a function of TTD sequence resulting from BPC (blue) or PBR peptide (red) binding. (F) HSQC overlays […]
ment:protein), and PBR peptide ratios (bottom spectrum - from 1:1 to 5:1 peptide:protein). The protein con-centration was ~250 µM for all NMR experiments, and the DMSO concentration was 5% for NMR titrations […]

N=C(N)N1CCC(Cc2ccccc2)CC1 [BPC, 4-benzylpiperidine-1-carboximidamide]
solubility (solubility (statement)): highly soluble | effect on TTD–PHD binding affinity for the histone peptide (TTD–PHD (UHRF1_126–366); 1.5 mM BPC (4% DMSO) or 1.5 mM PBR peptide, H3K9me3(1–15)): reduces the TTD–PHD binding affinity for the histone peptide | increase of KD for H3K9me3 (effect of added ligand) (TTD–PHD (UHRF1_126–366); 1.5 mM BPC or PBR peptide in syringe and cell, vs apo TTD–PHD): ~5 fold | effect on PHD resonances (PHD; 3 mM BPC, 5% DMSO (12:1)): unaffected | interaction with PHD (PHD; separate NMR titration with PHD): no interaction | ΔTm (thermal shift) (TTD (UHRF1_121–286)): 2.9 °C
